Data: patent US20020125193A1, “Electrochemical analysis of coenzyme Q10 and reduced coenzyme Q10” (priority 2001, published 2002)

Assays:
[1] = Solubility in 1-propanol relative to other alcohols; format: physicochemical
Source text: Using 1-propanol as an extracting solvent allows fast and simple sample processing. The procedure has been simplified to a single extraction and no evaporation process is needed. This allows for efficient sample handling. Extraction of CoQ10H2 and CoQ10 from a variety of biological matrices is made facile with 1-propanol, because it can be mixed with water in any proportion. […] Thus, 1-propanol is an effective extraction solvent (Table 2). The 1-propanol extract can be directly analyzed by the described HPLC-EC method. Furthermore, this procedure takes advantage of the use of CoQ9 as an internal standard. Because the levels of CoQ9 in human blood are negligible, it is desirable to spike control samples with this CoQ9 to validate the extraction process.

[2] = Stability of CoQ10H2 in 1-propanol extract; format: physicochemical, human
Protocol: (§1) Each frozen sample is thawed at room temperature, and 100 μl of this sample is placed in a 1.5-ml capped polypropylene tube containing 50 μl of internal standard solution (CoQ9, 2 μg/mL in 1-propanol). All the tubes are kept in an ice-bath. This is mixed with 850 μl of cold 1-propanol. The tubes are vortexed for 2 minutes on a mechanical vortexer and centrifuged for 10 min at 0-4° C. The resulting supernatant is separated from the precipitate and transferred to an autosampler glass vial. The sample vial is immediately placed in the autosampler tray at 0-4° C. A batch of up to 20 samples can be extracted and processed at the same time. An aliquot of 20 μl of 1-propanol extract from a vial is injected immediately onto an automated HPLC. Twenty samples can be analyzed sequentially, within 4 hours.

[3] = cited from earlier work
[4] = Stability of CoQ10H2 in refrigerated blood samples in vacutainers; format: physicochemical, human
Protocol: When blood samples in vacutainers are opened and kept refrigerated, the CoQ10H2:TQ10 ratios (n=30) in EDTA samples decreased by ˜30% over 7 h, whereas the CoQ10H2:TQ10 ratios in heparinized samples were stable over the same period with variation of less than 3% (median 0.949; range 0.927-0.970; n=30). There was as significant difference of CoQ10H2:TQ10 ratios in heparin in EDTA (P=0.028). The observed findings therefore reflect the effect of air-exposure on EDTA samples during the blood sampling procedure. The results also indicate that delays, in processing and analyzing EDTA samples would result in lowered and variable CoQ10H2:TQ10 ratios.
CoQ10H2 is not stable and is oxidized in air at room temperature. CoQ10H2 is unstable in whole blood, plasma and n-propanol extract when EDTA is used as anticoagulant. EDTA-anticoagulated blood loses approximately 15% of CoQ10H2 within 4 hours when stored in refrigeration (4° C.), whereas only <1% loss of CoQ10H2 occurs in heparin-anticoagulated blood under the same conditions (FIG. 6). When fresh blood samples in closed heparin vacutainers are kept refrigerated, no significant difference in CoQ10H2:TQ10 ratios was observed between samples stored for 0 h and 24 h (P=0.052). The median CoQ10H2:TQ10 ratio stored for 24 h was 0.955 (range 0.923-0.972; n=8) in comparison to the initial value of 0.964 (range 0.935-0.978; n=8). The CoQ10H2:TQ10 ratios decreased by ˜6% after 48 h and by ˜28% after 72 h. Storage of blood specimens in VACUTAINERS at +4° C. […] Okamoto et al reported the percentage of CoQ10H2 with respect to the TQ10 was constant in plasma for one day when kept at 2° C. and −10° C.

[5] = Stability of CoQ10H2 in frozen plasma; format: physicochemical, human; settings: plasma kept frozen at −75° C. or below
Protocol: (§2) According to the present invention, venous blood is collected into a VACUTAINER containing heparin as anticoagulant and mixed gently by inversion 5-6 times. At this point the blood-heparin tube is securely capped, and is then placed in ice and/or kept in refrigeration prior to processing. The blood-heparin tube should be processed within 4 hours. Blood samples should not be collected in tubes containing metal chelators, such as ethylenediaminetetraacetic acid (EDTA). The blood-heparin tube is subject to centrifugation at an appropriate speed such as 3000 rpm for 10 minutes at 4° C. Heparinized plasma is separated from red blood cells and placed in a capped polypropylene tube and immediately stored at −75° C. or below until analysis.
CoQ10H2 is not stable and is oxidized in air at room temperature. CoQ10H2 is unstable in whole blood, plasma and n-propanol extract when EDTA is used as anticoagulant. EDTA-anticoagulated blood loses approximately 15% of CoQ10H2 within 4 hours when stored in refrigeration (4° C.), whereas only <1% loss of CoQ10H2 occurs in heparin-anticoagulated blood under the same conditions (FIG. 6). When fresh blood samples in closed heparin vacutainers are kept refrigerated, no significant difference in CoQ10H2:TQ10 ratios was observed between samples stored for 0 h and 24 h (P=0.052). […]

[6] = CoQ10H2 and TQ10 in paired heparin versus EDTA plasma samples by HPLC-EC; format: physicochemical, human
Protocol: as §2
as §1, with “A batch of up to 20 samples can be extracted and processed at the same time. An aliquot of 20 μl of 1-propanol extract from a vial is injected immediately onto an automated HPLC.” left out, “hours. […]” for “hours.”

For COC1=C(OC)C(=O)C(C/C=C(\C)CC/C=C(\C)CC/C=C(\C)CC/C=C(\C)CC/C=C(\C)CC/C=C(\C)CC/C=C(\C)CC/C=C(\C)CC/C=C(\C)CCC=C(C)C)=C(C)C1=O [CoQ10, ubiquinone-10, reference compound], the solubility in alcohols [1] was “highest solubility in 1-propanol”.
With COc1c(O)c(C)c(C/C=C(\C)CC/C=C(\C)CC/C=C(\C)CC/C=C(\C)CC/C=C(\C)CC/C=C(\C)CC/C=C(\C)CC/C=C(\C)CC/C=C(\C)CCC=C(C)C)c(O)c1OC [CoQ10H2] the “loss of CoQ10H2” value ([2]; in 5 hours, 0-4° C.) was 1%, the CoQ10H2 oxidized ([2]; in an hour, room temperature) was 3.75% and the “rate of CoQ10H2 oxidation” value ([2]; room temperature) was ~2 nM/min. The “stability in ethanol solution” value ([3]; extracted from plasma, prepared in ethanol solution (Okamoto et al)) was “rapidly oxidized”, the “percentage of CoQ10H2 with respect to the TQ10” value ([3]; plasma, one day, 2° C. and −10° C. (Okamoto et al)) was “constant” and the “rate of spontaneous oxidation to CoQ10” value ([3]; room temperature) was ~2 nM per min. The solubility in alcohols [1] was “highest solubility in 1-propanol”, the “decrease of CoQ10H2:TQ10 ratio” value ([4]; EDTA blood, vacutainers opened, refrigerated, over 7 h, n=30) was ~30% and the “loss of CoQ10H2” value ([4]; EDTA-anticoagulated blood, within 4 hours, 4° C.) was “approximately 15%”. The “loss of CoQ10H2” value ([4]; blood in VACUTAINERS at +4° C., 24 hours) was < 3%, the “time CoQ10H2 is stable” value ([4]; blood in closed heparin VACUTAINERS kept refrigerated) was “at least 24 hours” and the “median CoQ10H2:TQ10 ratio” value ([4]; closed heparin vacutainers, initial value (0 h), n=8) was 0.964. For the same compound, the “decrease of CoQ10H2:TQ10 ratio” value ([4]; closed heparin vacutainers, refrigerated, after 48 h) was ~6%, the “decrease of CoQ10H2:TQ10 ratio” value ([4]; closed heparin vacutainers, refrigerated, after 72 h) was ~28% and the “median CoQ10H2:TQ10 ratio” value ([4]; closed heparin vacutainers, refrigerated, stored for 24 h, n=8) was 0.955. For the same compound, the “loss of CoQ10H2” value ([4]; heparin-anticoagulated blood, within 4 hours, 4° C.) was < 1%, the “variation of CoQ10H2:TQ10 ratio” value ([4]; heparinized blood, vacutainers opened, refrigerated, over 7 h) was “less than 3%” and the “median CoQ10H2:TQ10 ratio” value ([4]; heparinized blood, vacutainers opened, refrigerated, over 7 h, n=30) was 0.949. The “time CoQ10H2 is stable” value [5] was “at least 6 months”, the “mean ratio of CoQ10H2:TQ10” value ([6]; EDTA-plasma) was 91.5(±4.4) % and the “mean ratio of CoQ10H2:TQ10” value ([6]; heparinized plasma) was 97.0(±1.4) %.
